{
  "source": "patent US20060128643A1",
  "about": "“Compositions containing a combination of a creatine compound and a second agent” (The General Hospital Corporation, priority 1998, published 2006)",
  "key": {"[1]": {"test_system": "malonate striatal lesions", "conditions": "cited from earlier work; for protection against lesions in the malonate animal model: in vivo"}, "[2]": {"test_system": "MPTP toxicity", "conditions": "mice; cited from earlier work"}, "[3]": {"conditions": "cited from earlier work"}, "[4]": {"test_system": "MPTP neurotoxicity (dopamine depletion)", "conditions": "animal model of Parkinson's disease; cited from earlier work"}, "[5]": {"test_system": "malonate induced striatal lesions", "assay": "Malonate model of Huntington's disease: striatal lesion volume (Example 1)", "format": "in vivo, rats", "experimental": "Oral administration of creatine and its analogue cyclocreatine were examined to determine their ability to attenuate malonate lesions. Creatine was administered orally to rats in their feed at doses of 0.25-3.0% of the diet. Cyclocreatine was administered at 0.2-1.0%. Controls received unsupplemented otherwise identical diets. The compounds were administered for two weeks prior to the administration of malonate and then for a further week prior to sacrifice. Malonate was dissolved in distilled deionized water and the pH wad adjusted to 7.4 with 0.1 m HCl. Intrastriatal injections of 1.5 ul of malonate containing 3 μmol were made into the striatum at the level of the bregma 2.4 mm lateral to the midline and 4.5 mm ventral to the dura. Animals were sacrificed at 7 days by decapitation, and the brains were quickly removed and placed in ice cold 0.9% saline solution. Brains were sectioned at 2 mm intervals. Slices were then placed posterior side down in 2% 2,3,5-triphenyltetrazolium chloride. Slices were stained in the dark at room temperature for 30 minutes and then removed and placed in 4% paraformaldehyde, pH 7.3. Lesions, noted by pale staining, were evaluated on the posterior surface of each section using a Bioquant 4 system by an experienced histologist blinded to experimental conditions. These measurements have been validated by comparing them to measurements obtained on adjacent Nissl stain sections."}, "[6]": {"test_system": "MPTP induced dopaminergic toxicity", "assay": "MPTP model for Parkinson's disease: striatal dopamine, DOPAC, HVA", "format": "in vivo, male Swiss Webster mice", "experimental": "The effect of two representative creatine compounds, creatine and cyclocreatine, were evaluated using this model. Creatine and cyclocreatine were administered in the initial pilot experiment as 1% formulation in the feed of animals, and was administered for three weeks before MPTP treatment. MPTP was administered intraperitoneally at a dose of 15 mg/kg every 2 hours for five injections. The animals then remained on either creatine or cyclocreatine supplemented diets for 1 week before sacrifice. The mice examined were male Swiss Webster mice weighing 30-35 grams obtained from Taconic Farms. Control groups received either normal saline or MPTP hydrochloride alone. MPTP was administered in 0.1 ml of water. The MPTP was obtained from Research Biochemicals. Eight to twelve animals were examined in each group. Following sacrifice the two striata were rapidly dissected and placed in chilled 0.1 M perchloric acid. Tissue was subsequently sonicated, and aliquots were taken for protein quantification using a fluorometer assay. Dopamine, 3,4-dihydroxyphenylacetic acid (DOPAC), and homovanillic acid (HVA) were quantified by HPLC with 16 electrode electrochemical detection. Concentrations of dopamine and metabolites were expressed as nmol/mg protein. The statistical significance of differences was determined by one-way ANOVA followed by Fisher PLSDpost-hoc test to compare group means.\nA dose response study was conducted where the creatine dose was 0.25%-3.0% of the diet and cyclocreatine 0.25-1.0% of the diet."}, "[7]": {"conditions": "up to 1% of diet for 2 weeks or for over 4 weeks; cited from earlier work"}, "[8]": {"conditions": "feeding animals, e.g. 1% dietary; cited from earlier work"}, "[9]": {"conditions": "rats receiving dietary 1% cyclocreatine; cited from earlier work"}, "[10]": {"conditions": "cited from earlier work", "remark": "listed apart in the source"}, "[11]": {"molecular_target": "creatine kinase (Oryctolagus cuniculus, UniProt P00563)", "sequence (P00563 whole entry)": "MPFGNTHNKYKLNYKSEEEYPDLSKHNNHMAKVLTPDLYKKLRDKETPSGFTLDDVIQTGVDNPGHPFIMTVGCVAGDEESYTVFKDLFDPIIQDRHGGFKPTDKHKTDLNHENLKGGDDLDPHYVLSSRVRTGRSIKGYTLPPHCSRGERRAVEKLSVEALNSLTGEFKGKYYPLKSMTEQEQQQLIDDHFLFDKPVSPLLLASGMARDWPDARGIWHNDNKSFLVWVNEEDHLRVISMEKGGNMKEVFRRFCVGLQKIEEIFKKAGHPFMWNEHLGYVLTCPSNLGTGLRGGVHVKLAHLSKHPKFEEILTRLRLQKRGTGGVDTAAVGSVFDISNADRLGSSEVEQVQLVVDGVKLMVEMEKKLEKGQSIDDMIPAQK", "conditions": "cited from earlier work"}, "[12]": {"test_system": "malonate lesions (striatal)", "assay": "Malonate striatal lesions, creatine and nicotinamide (Example 4)", "format": "in vivo, male Sprague-Dawley rats", "conditions": "creatine 1% in the diet, nicotinamide 0.5% in the drinking water; malonate 3 μmol intrastriatal", "experimental": "Studies of the neuroprotective effects of creatine and nicotinamide were carried out in 250 to 300 g male Sprague-Dawley rats. Creatine was administered orally to rats in their feed at a dose of 1% in the diet. Nicotinamide was administered orally with apple juice at a dose of 0.5% in the drinking water. Rats were treated for one week prior to intracerebral injectior˜s. Animals then remained on the control or supplemented diets for one week prior to being sacrificed. Eleven to 12 animals were examined in each experimental group. NMDA was administered at a doge of 240 nmol in 1 μl. AMPA was administered at a dose of 30 nmol in 1 μl and kainic acid was administered at dose of 5 nmol in 1 μl. Malonate was dissolved in distilled deionized water and the pH was adjusted to 7.4 with HCl. Intrastriatal injections of 3 μmol of malonate in 1.5 μl were made with a 10 μl Hamiiton syringe fitted with a 26 gauge blunt tip needle, into the left striatum at the level of the bregma, 2.4 mm lateral to the midline and 4.5 mm ventral to the dura as described previously [Matthews, R. T et al. J. Neurosci., 18 (1998) 156-163]. […] Lesions noted by pale staining were evaluated on the posterior surface of each section using a Bioquant 4 system, which calculates the volume of the lesions in each section, by an experienced histologist blinded to experimental conditions. […]"}, "[13]": {"conditions": "intravenous injection, up to 8 grams/day, patients with cardiac diseases; cited from earlier work"}, "[14]": {"conditions": "dose response study, 0.5% of the diet"}},
  "data": [
    {"compound": "COC1=C(OC)C(=O)C(C/C=C(\\C)CC/C=C(\\C)CC/C=C(\\C)CC/C=C(\\C)CC/C=C(\\C)CC/C=C(\\C)CC/C=C(\\C)CC/C=C(\\C)CC/C=C(\\C)CCC=C(C)C)=C(C)C1=O", "note": "[CoQ10, 2,3 dimethoxy-5 methyl-6-decaprenyl benzoquinone]", "values": [
      {"measurement": "ATP depletion produced by malonate in vivo", "setting": "[1]", "value": "attenuated ATP depletion"},
      {"measurement": "protection against lesions in the malonate animal model", "setting": "[1]", "value": "dose dependent protection"},
      {"measurement": "protection against MPTP toxicity", "setting": "[2]", "value": "significantly protect"},
      {"measurement": "solubility in chloroform and carbon tetrachloride", "setting": "[3]", "value": "very soluble"},
      {"measurement": "solubility in water", "setting": "[3]", "value": "insoluble in water"}
    ]},
    {"compound": "CC(C)(C)[N+]([O-])=Cc1ccccc1S(=O)(=O)O", "note": "[N-tert-a-(2-sulfophenyl) nitrone, reference compound]", "values": [
      {"measurement": "protection against dopamine depletion", "setting": "[4]", "value": "effective in inhibiting moderate dopamine depletion"}
    ]},
    {"compound": "NC1=NCCN1CC(=O)O", "note": "[cyclocreatine, 1-carboxymethyl-2-iminoimidazolidine]", "values": [
      {"measurement": "neuroprotection against malonate induced striatal lesions", "setting": "[5]; 1% in the diet", "value": "significant"},
      {"measurement": "neuroprotection against malonate induced striatal lesions, dose response", "setting": "[5]; increasing doses in the diet (creatine 0.25-3%; cyclocreatine 0.2-1.0%)", "value": "dose dependent neuroprotective effects"},
      {"measurement": "protection against striatal malonate lesions", "setting": "[5]; oral supplementation in feed, 2 weeks before and 1 week after intrastriatal malonate 3 μmol", "value": "protected against striatal malonate lesions"},
      {"measurement": "effect against MPTP induced depletions of homovanillic acid", "setting": "[6]; 1% in feed, pilot experiment", "value": "effective"},
      {"measurement": "neuroprotection against MPTP induced dopamine depletions", "setting": "[6]; 1% in feed, pilot experiment", "value": "significant neuroprotection"},
      {"measurement": "neuroprotective effect compared with creatine", "setting": "[6]; 1% in feed, pilot experiment", "value": "greater than that seen with creatine alone"},
      {"measurement": "protection against DOPAC depletions induced by MPTP", "setting": "[6]; 1% in feed, pilot experiment, MPTP 15 mg/kg i.p. x5", "value": "significantly protected"},
      {"measurement": "effects on the dopamine metabolites HVA and DOPAC", "setting": "[6]; dose response study (creatine 0.25%-3.0%; cyclocreatine 0.25-1.0% of the diet)", "value": "neuroprotection effects"},
      {"measurement": "neuroprotection against MPTP induced dopamine depletions", "setting": "[6]; [14]", "value": "significant protection"},
      {"measurement": "protection against HVA depletion", "setting": "[6]; [14]", "value": "not seen"},
      {"measurement": "neuroprotection against MPTP induced dopamine depletions", "setting": "[6]; dose response study, 1.0% of the diet", "value": "significant protection"},
      {"measurement": "gross adverse effects", "setting": "[7]", "value": "without gross adverse effects"},
      {"measurement": "accumulation in organs", "setting": "[8]", "value": "accumulation of cyclocreatine in different organs in mM concentrations"},
      {"measurement": "tissue uptake", "setting": "[9]", "value": "taken up by muscle, heart and brain"},
      {"measurement": "mortality", "setting": "[10]; diet containing 1% cyclocreatine, in the presence of antibiotics", "value": "without significant mortality"},
      {"measurement": "growth versus control chicks", "setting": "[10]; in vivo", "value": "grew more slowly"}
    ]},
    {"compound": "N=C(N)N(CC(=O)O)CC1CO1", "note": "(centres unmarked) [epoxycreatine]", "values": [
      {"measurement": "inactivation of creatine kinase", "setting": "[11]", "value": "completely and irreversibly inactivate"}
    ]},
    {"compound": "NC(=O)c1cccnc1", "note": "[nicotinamide]", "values": [
      {"measurement": "neuroprotective effect against malonate lesions (striatal lesion volume)", "setting": "[12]", "value": "did not reach significance"},
      {"measurement": "ATP depletion produced by malonate in vivo", "setting": "[1]", "value": "attenuated ATP depletion"},
      {"measurement": "protection against lesions in the malonate animal model", "setting": "[1]", "value": "dose dependent protection"},
      {"measurement": "protection against dopamine depletion", "setting": "[4]", "value": "effective in inhibiting moderate dopamine depletion"}
    ]},
    {"compound": "N-phosphoryl creatine [creatine phosphate]", "values": [
      {"measurement": "adverse side effects", "setting": "[13]", "value": "no adverse side effects"}
    ]},
    {"compound": "isoepoxycreatine", "values": [
      {"measurement": "inactivation of creatine kinase", "setting": "[11]", "value": "completely and irreversibly inactivate"}
    ]}
  ]
}
